Values of other authors as cited in patent US10864317B2, “Time controlled periodic infusion” (Ferrosan Medical Devices A/S, priority 2014, dated 2020).

System: peripheral nerve
Conditions: ropivacaine as LA; dependent on regional and individual differences

SMILES: CCCN1CCCC[C@H]1C(=O)Nc1c(C)cccc1C [ropivacaine]
- duration of pain relief for nerve blocks: about 12 h
